This assay relates to HUVEC (human umbilical vein endothelial cells), VEGF-induced proliferation. As to the kind of experiment: Cell proliferation inhibitory action test using a VEGF-induced HUVEC proliferation reaction evaluation system. The class given is cell-based. The note with it: 20 μg/mL test compound solution, 5 μL per well, WST-8 three days after VEGF addition, absorbance at 450 nm, control 1.0% DMSO; for inhibition at 20 µg/mL (stock): Homo sapiens, 72 h, read-out: Cell proliferation inhibition rate (%). The method, then:
In order to find the usefulness of the compound of the present invention, a test for inhibitory effects of the compound of the present invention on cell proliferation was carried out using a VEGF-induced HUVEC proliferation reaction evaluation system (HUVEC: human umbilical vein endothelial cells), which is a method of evaluating antiangiogenic effects of drugs, and the antiangiogenic effects of the compounds were evaluated.
As one of the widely used methods of evaluating antiangiogenic effects of drugs, a cell proliferation inhibitory action test using a VEGF-induced HUVEC proliferation reaction evaluation system has been reported in Cancer Res., 59, 99-106 (1999). According to the method described in the above-mentioned document, a cell proliferation inhibitory action test of the compound of the present invention was carried out, and the cell proliferation inhibition rate was calculated. Then, the antiangiogenic effect of each of the compound of the present invention was evaluated using the obtained rate as an index.
(Preparation of Test Compound Solution)
Each test compound was dissolved in dimethyl sulfoxide (hereinafter abbreviated as DMSO), and the obtained solution was diluted with a commercially available phosphate buffer solution (hereinafter abbreviated as PBS), whereby a 20 μg/mL test compound solution was prepared.
(Preparation of HUVEC Suspension)
HUVEC was suspended in F12K medium containing 0.5% fetal bovine serum (hereinafter abbreviated as FBS), whereby a 2×10^4 cells/mL HUVEC suspension was prepared.
(Preparation of VEGF Solution)
VEGF was dissolved in PBS containing 0.1% bovine serum albumin, and the obtained solution was diluted with F12K medium containing 0.5% FBS, whereby a 400 ng/mL VEGF solution was prepared.
(Test Method and Measurement Method)
1) The HUVEC suspension was inoculated in an amount of 100 μL into each well of a 96-well plate coated with type I collagen (2×10^3 cells per well).
2) One day after the inoculation, the test compound solution was added in an amount of 5 μL per well.
3) One hour after the addition of the test compound solution, the VEGF solution was added in an amount of 5 μL per well.
4) Three days after the addition of the VEGF solution, WST-8 assay reagent (Dojin Chemical Co., Ltd.) was added in an amount of 10 μL per well.
5) After 3 hours, the above-mentioned plate was attached to an absorptiometer (Multilabel Counter ARVO), and an absorbance at 450 nm of suspension in each well (hereinafter referred to as a test compound suspension) was measured.
6) A test was carried out in the same manner as in the above 1) to 5) except that 1.0% DMSO was used instead of the test compound solution. The result was used as a control.
Incubation was carried out under conditions of 37° C., 5% carbon dioxide and […] in an incubator throughout the above-mentioned test steps.
(Calculation of Cell Proliferation Inhibition Rate)
The cell proliferation inhibition rate (%), which was used as an index of an antiangiogenic effect, was calculated using the following calculation equation. Cell proliferation inhibition rate (%)=100−{(Absorbance of test compound suspension−A)/(absorbance of control−A)}×100 (Calculation Equation) A: Absorbance of only cell suspension (cells+medium) (Test Results and Discussion)

Turning to `Cc1cc(C)cc(NC(=O)c2cccnc2SCc2ccnc(NC3CC3)n2)c1` [Compound 4-1, 2-(2-Cyclopropylaminopyrimidin-4-ylmethylthio)-N-(3,5-dimethylphenyl)pyridine-3-carboxamide], the inhibition at 20 µg/mL (stock) was 100%. Take `Nc1nccc(CSc2ncccc2C(=O)Nc2cc3ccccc3cn2)n1` [Compound 1-12, 2-(2-Aminopyrimidin-4-ylmethylthio)-N-(isoquinolin-3-yl)pyridine-3-carboxamide]: the inhibition at 20 µg/mL (stock) is 84%. The same measure, in the same setting: in the case of `CC(=O)N(C(C)=O)c1nccc(CSc2ncccc2C(=O)Nc2cc(C)cc(C)c2)n1` [Compound 3-1, 2-(2-Diacetylaminopyrimidin-4-ylmethylthio)-N-(3,5-dimethylphenyl)pyridine-3-carboxamide] it was 100%; in that of `CSc1nccc(CSc2ncccc2C(=O)Nc2cc(C)cc(C)c2)n1` [Compound 1-26, N-(3,5-Dimethylphenyl)-2-(2-methylthiopyrimidin-4-ylmethylthio)pyridine-3-carboxamide], 100%; in that of `CC(=O)Nc1nccc(CSc2ncccc2C(=O)Nc2ccc(Cl)cc2)n1` [Compound 2-2, 2-(2-Acetylaminopyrimidin-4-ylmethylthio)-N-(4-chlorophenyl)pyridine-3-carboxamide], 97%.

For `Cc1cc(C)cc(NC(=O)c2cccnc2SCc2ccnc(N3CCOCC3)n2)c1` [Compound 4-4, N-(3,5-Dimethylphenyl)-2-(2-morpholinopyrimidin-4-ylmethylthio)pyridine-3-carboxamide], the inhibition at 20 µg/mL (stock) amounted to 100%.

Take `Cc1cc(C)cc(NC(=O)c2cccnc2SCc2ccnc(N)n2)c1` [Compound 1-1, 2-(2-Aminopyrimidin-4-ylmethylthio)-N-(3,5-dimethylphenyl)pyridine-3-carboxamide]: the inhibition at 20 µg/mL (stock) amounted to 96%.

As to `Cc1cc(C)cc(NC(=O)c2sccc2SCc2ccnc(N)n2)c1` [Compound 1-20, 3-(2-Aminopyrimidin-4-ylmethylthio)-N-(3,5-dimethylphenyl) thiophene-2-carboxamide], the “Cell proliferation inhibition rate (%)” value is 100%. In the case of `O=C(Nc1cccc(C(F)(F)F)c1)c1cccnc1SCc1ccnc(N2CCNCC2)n1` [Compound 4-36, 2-[2-(piperazin-1-yl)pyrimidin-4-ylmethylthio]-N-(3-trifluorophenyl)pyridine-3-carboxamide], the “Cell proliferation inhibition rate (%)” value stood at 100%.

As to `Cc1cc(C)cc(NC(=O)c2cccnc2SCc2ccnc(N3CCN(CCO)CC3)n2)c1` [Compound 4-25, N-(3,5-Dimethylphenyl)-2-[2-(4-(2-hydroxyethyl)piperazin-1-yl)pyrimidin-4-ylmethylthio]pyridine-3-carboxamide], the inhibition at 20 µg/mL (stock) is 100%. Same read-out and setting: in the case of `CNc1nccc(CSc2ncccc2C(=O)Nc2cc(C)cc(C)c2)n1` [Compound 1-33, N-(3,5-Dimethylphenyl)-2-(2-methylaminopyrimidin-4-ylmethylthio)pyridine-3-carboxamide] it was 100%; in that of `Cc1cc(C)cc(NC(=O)c2ccccc2SCc2ccnc(N)n2)c1` [Compound 1-16, 2-(2-Aminopyrimidin-4-ylmethylthio)-N-(3,5-dimethylphenyl)benzamide], 100%; in that of `Cc1cc(C)cc(NC(=O)c2cccnc2SCc2ccncn2)c1` [Compound 1-22, N-(3,5-Dimethylphenyl)-2-(pyrimidin-4-ylmethylthio)pyridine-3-carboxamide], 100%. As for `O=C(Nc1cccc(C(F)(F)F)c1)c1cccnc1SCc1ccnc(NC2CC2)n1` [Compound 4-9, 2-(2-Cyclopropylaminopyrimidin-4-ylmethylthio)-N-(3-trifluoromethylphenyl)pyridine-3-carboxamide], the inhibition at 20 µg/mL (stock) came to 100%. Regarding `Cc1cc(C)cc(NC(=O)c2cccnc2SCc2ccnc(NCCO)n2)c1` [Compound 4-19, N-(3,5-Dimethylphenyl)-2-[2-(2-hydroxyethyl)aminopyrimidin-4-ylmethylthio]pyridine-3-carboxamide], the inhibition at 20 µg/mL (stock) was determined as 100%. On to `CC(=O)Nc1nccc(CSc2ncccc2C(=O)Nc2ccc3c(c2)CCC3)n1` [Compound 2-4, 2-(2-Acetylaminopyrimidin-4-ylmethylthio)-N-(indan-5-yl)pyridine-3-carboxamide], for which the inhibition at 20 µg/mL (stock) was found to be 99%. With `CCOCCNc1nccc(CSc2ncccc2C(=O)Nc2ccc(OC(F)(F)F)cc2)n1` [Compound 4-22, 2-[2-(2-Ethoxyethyl)aminopyrimidin-4-ylmethylthio]-N-(4-trifluoromethoxyphenyl)pyridine-3-carboxamide], the inhibition at 20 µg/mL (stock) stood at 100%. Still for that read-out and setting: to `CC(=O)Nc1nccc(CSc2ncccc2C(=O)Nc2cc(C)cc(C)c2)n1` [Compound 2-1, 2-(2-Acetylaminopyrimidin-4-ylmethylthio)-N-(3,5-dimethylphenyl)pyridine-3-carboxamide] belongs 100%; to `CC(C)c1cccc(NC(=O)c2cccnc2SCc2ccnc(N)n2)c1` [Compound 1-7, 2-(2-Aminopyrimidin-4-ylmethylthio)-N-(3-isopropylphenyl)pyridine-3-carboxamide], 96%.

As to `O=C(Nc1ccc(OC(F)(F)F)cc1)c1cccnc1SCc1ccnc(NC2CC2)n1` [Compound 4-6, 2-(2-Cyclopropylaminopyrimidin-4-ylmethylthio)-N-(4-trifluoromethoxyphenyl)pyridine-3-carboxamide], the inhibition at 20 µg/mL (stock) was 100%.
